Values of other authors in patent US20050214224A1, “Lipid formulations for spontaneous drug encapsulation” (Nektar Therapeutics, priority 2003, published 2005).

Details: hydrated state; lipid excipient

CCCCCCCCCCCCCC(=O)OC[C@H](COP(=O)([O-])OCC[N+](C)(C)C)OC(=O)CCCCCCCCCCCCC [DMPC, dimyristoylphosphatidylcholine]
hydrated liquid transition temperature: 23.5 °C

CCCCCCCCCCCCCCCC(=O)OC[C@H](COP(=O)([O-])OCC[N+](C)(C)C)OC(=O)CCCCCCCCCCCCCCC [DPPC, dipalmitoylphosphatidylcholine]
hydrated liquid transition temperature: 42 °C
